From paper PMC10938439, “C-3 Steroidal Hemiesters as Inhibitors of 17β-Hydroxysteroid Dehydrogenase Type 10” (ACS Omega, 2024)
“And” between values parts separate entries of the source, which are not always exact repeats. Equal values may be shown once. Read-outs that look alike come from different tables or passages of the source.

What was measured:
17β-HSD10 [1] = molecular target: T1, 17β-HSD10 (Homo sapiens, UniProt Q99714); assay: Inhibition of 17β-estradiol to estrone transformation by purified recombinant 17β-HSD10 (NADH fluorescence); assay type: biochemical; settings: for IC50: purified recombinant 17β-HSD10, 17β-estradiol as substrate, means ± SEM (n = 4); for inhibition at 1 µM: read-out: Inhibition at 1 µM (%) (this study); for inhibition at 10 µM: read-out: Inhibition at 10 µM (%) (this study)
T1 construct: inferred from Ni-NTA purification with imidazole elution; made in house; host or cells: E. coli BL21 (DE3)
T1 sequence (Q99714 1-261): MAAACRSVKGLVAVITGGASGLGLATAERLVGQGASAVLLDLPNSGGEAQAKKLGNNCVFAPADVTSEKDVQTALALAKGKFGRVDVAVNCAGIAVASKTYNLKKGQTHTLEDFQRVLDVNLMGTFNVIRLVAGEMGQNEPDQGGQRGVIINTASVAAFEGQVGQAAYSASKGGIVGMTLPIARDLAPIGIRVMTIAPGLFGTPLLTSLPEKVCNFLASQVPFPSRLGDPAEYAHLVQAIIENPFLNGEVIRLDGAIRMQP
Description: As standards, we used the known inhibitor AG18051 as the positive control and the published steroidal compounds,[18] namely, pregnenolone, testosterone, dihydrotestosterone, androsterone, epiandrosterone, and dehydroepiandrosterone.
17β-HSD10 was performed as described previously.[11] Briefly, the autoinduction and overexpression were performed at 25 °C for 18 h in the E. coli BL21 (DE3) strain. The bacterial pellet was resuspended in lysis buffer that consisted of sodium phosphate buffer ([…]), NaCl (150 mM), and imidazole (10 mM, pH 8.0) with 1 mg/mL lysozyme and benzonase (150 U/mL). cOmplete EDTA-free protease inhibitor cocktail was incubated for 20 min on ice and then sonicated (12 × 10 s pulses with 30 s pauses). The supernatant was applied to the Ni-NTA agarose resin after centrifugation (16 000g, 10 min, 4 °C). Then, the solution was incubated on ice for 1 h with gentle stirring.
The standard steroids were screened at 1 and 10 μM concentrations, and the tested compounds and standard AG18051 were screened at 10 μM concentration. For compounds with at least 50% inhibition of 17β-HSD10, the IC50 values were determined.
Steroid stock solutions (5 mM) were further diluted with DMSO to the working concentrations. DMSO was used as a vehicle control, and AG18051 was used as a control inhibitor. The enzyme activity was determined fluorometrically at 37 °C in the activity assay buffer [100 mM potassium phosphate buffer (pH 8.0)]. The general reaction mixture (200 μL per well) consisted of 17β-estradiol (25 μM, DMSO), NAD+ (500 μM, deionized water), recombinant 17β-HSD10 (45 nM), and different concentrations of inhibitor (2.2% (v/v) final concentration of DMSO as solvent). Before the addition of substrate, the reaction mixture of enzyme, cofactor, and inhibitor in the assay buffer was preincubated for 5 min at 37 °C. The increase of fluorescence (Ex/Em = 340/460 nm) due to the formation of NADH was monitored for 20 min (30 s intervals). For IC50 value determination, dose–response inhibition at 11 different concentrations of inhibitor (0.6–33.75 μM) was determined and the data were analyzed by GraphPad Prism 8.4.3 (GraphPad Software Inc.). All measurements were performed in a tetraplicate.

[2] = set-up: method as in PMID 30296546; settings: cited from earlier work
Caco-2 cells = tested on: Caco-2 cells; set-up: method as in PMID 30296546; settings: cited from earlier work
[3] = set-up: method as in PMID 30296546; settings: cited from earlier work; remark: listed apart in the source
17β-HSD10 [4] = settings: cited from earlier work; for Inhibition at 1 µM (%) Ayan et al. 2012: 1 µM steroid, different (cellular) assay, ref Ayan et al. 2012 (ref 18)
17β-HSD10 [5] = tested on: 17β-HSD10; set-up: method as in PMID 37458164; settings: 17β-HSD10 inhibition, literature value; cited from earlier work
17β-HSD10 [6] = tested on: 17β-HSD10; set-up: method as in PMID 30297283; settings: in vitro, recombinant enzyme, cited from earlier work
HEK-293 cell line = tested on: HEK-293 cell line; set-up: method as in PMID 37458164; settings: cited from earlier work
[7] = 10 μM compound, 17β-estradiol as substrate, means ± SD (n = 4)

Row | Compound | IC50 (17β-HSD10 [1]) | human plasma stability, % remaining after 8 h [2] | Caco-2 cell permeability (50 μM) Papp (Caco-2 cells) | rat plasma stability, % remaining after 8 h [3] | Inhibition at 1 µM (%) Ayan et al. 2012 (17β-HSD10 [4]) | inhibition at 1 µM (17β-HSD10 [1]) | inhibition at 10 µM (17β-HSD10 [1]) | also measured
1 | CC[C@H]1CC[C@H]2[C@@H]3CC=C4C[C@@H](OC(=O)CCCC(=O)O)CC[C@]4(C)[C@H]3CC[C@]12C [Compound 15, Pregn-5-en-3β-yl Hemiglutarate] | 9.01 ± 0.43 µM | 100% | 1.9 × 10^–6 cm/s | 99% | – | – | – | –
2 | C[C@]12CC[C@H](O)CC1=CC[C@@H]1[C@@H]2CC[C@]2(C)C(=O)CC[C@@H]12 [dehydroepiandrosterone] | – | – | – | – | 0.0 ± 3.2% | 5.4 ± 3.7% | 6.6 ± 3.5% | –
3 | O=C(C(c1ccccc1)n1cnc2[nH]ncc2c1=S)N1CCCCCC1 (stereo not shown) [AG18051, 1-azepan-1-yl-2-phenyl-2-(4-thioxo-1,4-dihydropyrazolo [3–d]pyrimidin-5-yl)-ethanone] | – | – | – | – | – | – | – | IC50 (17β-HSD10 [5]): 90 ± 10 nM
4 | COc1cccc(CN2CCN(C[C@@]3(O)CC[C@@]4(C)[C@@H](CC[C@@H]5[C@@H]4CC[C@]4(C)C(=O)CC[C@@H]54)C3)CC2)c1 [RM-532-46, (3α,5α,17α)-3-Hydroxy-3-[4-(3-methoxybenzyl)piperazin-1-yl]methylandrostan-17-one] | – | – | – | – | – | – | – | IC50 (17β-HSD10 [4]; cellular assay using HEK-293 cells): 550 nM; IC50 (17β-HSD10 [6]; 17β-estradiol, read-out: IC50 using 17β-estradiol as substrate): 610 µM; IC50 (17β-HSD10 [6]; allopregnanolone, read-out: IC50 using allopregnanolone as substrate): 235 µM
5 | C[C@@]12CCC[C@H]1[C@@H]1CC=C3C[C@@H](OC(=O)CCC(=O)O)CC[C@]3(C)[C@H]1CC2 [Compound 21, Androst-5-en-3β-yl Hemisuccinate] | 7.33 ± 0.45 µM | 99% | 1.0 × 10^–4 cm/s | 88% | – | – | – | –
6 | C[C@@]12CCC[C@H]1[C@@H]1CC=C3C[C@@H](OC(=O)CCCCCC(=O)O)CC[C@]3(C)[C@H]1CC2 [Compound 24, Androst-5-en-3β-yl Hemipimelate] | 7.17 ± 0.4 µM | 100% | 1.3 × 10^–6 cm/s | 38% | – | – | – | –
7 | C[C@]12CC[C@H](O)C[C@@H]1CC[C@@H]1[C@@H]2CC[C@]2(C)C(=O)CC[C@@H]12 [epi-androsterone, epiandrosterone] | – | – | – | – | 6.0 ± 1.0% | 2 ± 4.9% | 7 ± 2.5% | –
8 | C[C@]12CC[C@H]3[C@@H](CCC4=CC(=O)CC[C@@]43C)[C@@H]1CC[C@@H]2O [testosterone] | – | – | – | – | 0.0 ± 3.2% | 10.3 ± 5.1% | 15.7 ± 3.8% | –
9 | C[C@@]12CCC[C@H]1[C@@H]1CC=C3C[C@@H](OC(=O)CCCC(=O)O)CC[C@]3(C)[C@H]1CC2 [Compound 22, Androst-5-en-3β-yl Hemiglutarate] | ~6.95 µM and 6.95 µM | 98% | 1.2 × 10^–5 cm/s | 57% | – | – | – | –
10 | C[C@]12CC[C@@H](O)C[C@@H]1CC[C@@H]1[C@@H]2CC[C@]2(C)C(=O)CC[C@@H]12 [androsterone] | – | – | – | – | 7.0 ± 5.9% | 3.2 ± 2.2% | 0% | –
11 | CC(=O)C1CCC2C3CC=C4CC(O)CCC4(C)C3CCC12C (stereo not shown) [pregnenolone] | – | – | – | – | 11 ± 2.6% | – | – | inhibition at 1 µM (17β-HSD10 [1]; 1 µM steroid, 17β-estradiol as substrate, means ± SD (n = 4)): 0%; inhibition at 10 µM (17β-HSD10 [1]; [7]): 5.9 ± 0.8%
12 | CC(=O)[C@H]1CC[C@H]2[C@@H]3CCC4=C[C@@H](O)CC[C@]4(C)[C@H]3CC[C@]12C [Compound 26] | – | – | – | – | – | – | – | toxicity for HEK-293 cell line (HEK-293 cell line): toxic
13 | CC(=O)[C@H]1CC[C@H]2[C@@H]3CC=C4C[C@@H](OC(=O)CCCC(=O)O)CC[C@]4(C)[C@H]3CC[C@]12C [Compound 10, 20-Oxo-pregn-5-en-3β-yl Hemiglutarate] | 16.9 ± 1.33 µM | – | – | – | – | – | – | inhibition at 10 µM (17β-HSD10 [1]; [7]): ~50%
14 | C[C@]12CCC(=O)C[C@@H]1CC[C@@H]1[C@@H]2CC[C@]2(C)[C@@H](O)CC[C@@H]12 [dihydrotestosterone] | – | – | – | – | 15 ± 0.8% | 0% | 6.3 ± 2% | –
15 | CC[C@H]1CC[C@H]2[C@@H]3CC=C4C[C@@H](OC(=O)CCCCC(=O)O)CC[C@]4(C)[C@H]3CC[C@]12C [Compound 16, Pregn-5-en-3β-yl Hemiadipate] | 9.29 ± 0.28 µM | 94% | 1.2 × 10^–6 cm/s | 43% | – | – | – | –
16 | CC[C@H]1CC[C@H]2[C@@H]3CC=C4C[C@@H](OC(=O)CCC(=O)O)CC[C@]4(C)[C@H]3CC[C@]12C [Compound 14, Pregn-5-en-3β-yl Hemisuccinate] | 9.94 ± 0.23 µM | 100% | 5.7 × 10^–6 cm/s | 55% | – | – | – | –
